The values below come from patent publication US8697747B2, “Enhancing coagulation or reducing fibrinolysis” (THe UAB Research Foundation, priority 2009, dated 2014).

Structures are written as SMILES.

The conditions of series [1]: pure (43.5 mg/mL) or up to three-fold diluted fibrinogen solution. From the text: Exposure of purified fibrinogen to CORM-2. Experiments with purified fibrinogen pre-exposure to CORM-2 were to be performed in a similar fashion as that described with prothrombin. […] Therefore, a concentration-response relationship between various fibrinogen concentrations with or without the addition of CORM-2 was generated as outlined subsequently.

Series [2] has as its system factor VII deficient plasma. Description: Thrombelastography, factor VII deficient plasma. It is filed as biochemical, human. Particulars: 100 mmol CORM-2 vs control; FVII deficient plasma, 4 individuals. The procedure:
(§1) Plasma deficient (<1% normal activity) in factor VIII (FVIII; 11 individuals), factor IX (FIX; 5 individuals), or factor VII (FVII; 4 individuals) was obtained from anonymous donors (George King Bio-Medical, Overland Park, Kans.) and was anticoagulated with sodium citrate. The final volume for all subsequently described plasma sample mixtures was […]. Sample composition consisted of […] of plasma, […] of tissue factor (0.1% final concentration in 0.9% NaCl; Diagnostica Stago, Asnieres, France), 3.6 mL of dimethyl sulfoxide (DMSO) or DMSO with CORM-2 ([…]; Sigma-Aldrich, St. Louis, Mo.), and 20 mL of […] CaCl2. […] (Motterlini et al. 2005). While CORM-2 decays slowly in DMSO, DMSO was added to the dry compound just prior to placement into the plasma mixture.
(§2) Plasma sample mixtures were placed in a disposable cup in a computer-controlled THROMBELASTOGRAPH® hemostasis system (Model 5000; Haemoscope Corp., Niles, Ill.), with addition of CaCl2 as the last step to initiate clotting. Data were collected until clot strength stabilized (maximum amplitude).
(§3) Statistical analyses. […] A paired student's t-test was used to analyze the effects of CORM-2 exposure in FVIII deficient individuals. The results of the FIX and FVII deficient groups were presented but not statistically analyzed secondary to the small number of individuals in each cohort. […] Statistical analyses and graphical representation of the data were generated with commercially available software (SigmaPlot 11.0; Systat Software Inc., San Jose, Calif.; CorelDRAW 12.0; Corel Corp., Ottawa, Ontario, Canada). A P value of less than 0.05 was considered significant.

For series [3], the system named is fibrinogen deficient plasma. As to the kind of experiment: Thrombelastography in fibrinogen deficient plasma with added fibrinogen. It is filed as biochemical, human. The procedure:
Plasma types, purified proteins and compounds. Prothrombin deficient plasma (George King Bio-Medical, Overland Park, Kans.) anticoagulated with sodium citrate was utilized for experimentation concerning the effects of CORM-2 on prothrombin. Purified prothrombin (Enzyme Research Laboratories, South Bend, Ind.) that was 95% pure (10.4 mg/mL, 11.1 U/mg, suspended in 20 mM Tris-HCl in 0.1M NaCl at pH 7.4) was used for experimentation. Fibrinogen deficient plasma (Affinity Biologicals, Inc., Ancaster, Ontario, Canada) anticoagulated with sodium citrate was used in experiments investigating the effects of CORM-2 on fibrinogen. […] CORM-2 and dimethyl sulfoxide (DMSO) were obtained from Sigma-Aldrich, St. Louis, Mo.
Fibrinogen deficient plasma experiments. In these experiments, the final plasma sample mixture volume was 358.6 μL. Sample composition consisted of 260 μL of fibrinogen deficient plasma, 65 μL of pure fibrinogen solution, and dH2O to generate discrete fibrinogen concentrations subsequently described, 3.6 μL of DMSO or CORM-2 in DMSO (final CORM-2 concentration 0 or 100 μM, n=4 per fibrinogen concentration), 10 μL of tissue factor reagent (0.1% final concentration), and 20 μL of 200 mM CaCl2. The fibrinogen concentrations studied were 100, 200, 300, 400, 500, 600, and 800 mg/dL.
Thrombelastographic monitoring. Plasma sample mixtures were placed in a disposable cup in a computer-controlled THROMBELASTOGRAPH® hemostasis system (Model 5000, Haemoscope Corp., Niles, Ill.), with addition of CaCl2 as the last step to initiate clotting. Data were collected until clot strength stabilized. The following previously described variables (Examples 1-3) were determined at 37° C.: Time to maximum rate of thrombus generation (TMRTG): This is the time interval (sec) observed prior to maximum speed of clot growth. […]
Statistical Analyses. […] The difference between the mean values of MRTG or TTG in samples exposed to 0 or 100 μM CORM-2 were determined and expressed as percent difference secondary to CORM-2 exposure in the fibrinogen deficient plasma experiments.

The subject of series [4] is factor IX deficient plasma. Description: Thrombelastography, factor IX deficient plasma. The conditions noted are these: 100 mmol CORM-2 vs control; FIX deficient plasma, 5 individuals. In kind it is biochemical, human. The procedure:
as §1, §2, §3

The mark [5] stands for this setting: 100 μM vs 0 μM CORM-2, fibrinogen 300 mg/dL.

In the case of `[C-]#[O+].[C-]#[O+].[C-]#[O+].[C-]#[O+].[C-]#[O+].[C-]#[O+].[Cl][Ru][Cl].[Cl][Ru][Cl]` [CORM-2, tricarbonyldichlororuthenium (II) dimer], the “solubility of CORM-2 in DMSO added to purified fibrinogen solution” value in series [1] is reported as “not soluble”. Further, in series [2], the “effect on MRTG” value was “an increase in MRTG and TTG in all FVII deficient plasma donors”; the “effect on TMRTG” value is “an increase in TMRTG in all individuals tested”; the “effect on TTG” value is “an increase in MRTG and TTG in all FVII deficient plasma donors”. The “TMRTG, range of values” in series [3] (100 μM CORM-2, fibrinogen 100-800 mg/dL) was 2.83 to 4.00 min. For the same molecule, in series [3] (setting [5]), the “increase in MRTG secondary to CORM-2 exposure” value is on record as more than 80% and the “increase in TTG secondary to CORM-2 exposure” value is listed as more than 80%. Further, in series [4], the “effect on MRTG (speed of clot formation)” value is given as “four of five individuals had an increase in the speed of clot formation”, the “effect on TMRTG” value was “decreased the TMRTG value of all five individual plasma samples tested” and the “effect on TTG” value is on record as “All individual plasma samples demonstrated an increase in TTG”.
